Assay results from patent US9426989B2 (priority 2010, dated 2016).

Tests used:
Assay type in all cases: cell-based
[1] = test system: Mammalian orthoreovirus, type 3 (strain Dearing, ATCC VR-824)
[2] = test system: Enteroviruses (Coxsackie virus, Echovirus); experiment: Comparative data for inactivation with BPL: Enteroviruses; settings: BPL 0.05%; 16 hours +2-8° C. (then 2 hours 37° C. for BPL hydrolysis)
BK Polyoma virus = experiment: Comparative data for inactivation with BPL: BK Polyoma virus; settings: BPL 0.05%; 16 hours +2-8° C. (then 2 hours 37° C. for BPL hydrolysis)

SMILES | Reduction (of reovirus titre) [1] [log 10] | reovirus inactivation, in words [1] | LRV [2] | LRV (BK Polyoma virus)
COO [Inactivator 072, Methylhydroperoxide] | 0.9 | performed poorly | – | –
O=C1CCO1 [BPL, β-propiolactone] | – | – | 4-5 | 2.1
